Source: the supplement of paper PMC10307832

Columns and labels:
Experiment in all cases: relative viability (nuclei count vs DMSO), 5 days (fraction); higher = more cells survive
[1] = compound: C1=CC2=NC=CN=C2C=C1/C=C/3\C(=O)NC(=O)S3 + C[C@@H](Oc1cc(-c2cnn(C3CCNCC3)c2)cnc1N)c1c(Cl)ccc(F)c1Cl [Crizotinib] (partner 1 µM)
How it was run: (§1)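 Lung cancer cell lines were pin-tool dosed in 1536-well plates on the day after seeding, with either a lone drug or a fixed anchor-drug dose plus five library-drug doses (not always all listed) in √10 steps. Nuclei were counted on 4× images after 5 days. Relative viability is the ratio of treated-well to vehicle-well nuclei counts, with each value a median of duplicate plates.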

[2] = compound: C1=CC2=NC=CN=C2C=C1/C=C/3\C(=O)NC(=O)S3 + C[C@]1(O)C[C@@H](c2nc(-c3ccc4ccc(-c5ccccc5)nc4c3)c3c(N)nccn32)C1 [Linsitinib] (partner 1 µM)
How it was run: as §1

BGJ398 + Palbociclib = compound: CCN1CCN(c2ccc(Nc3cc(N(C)C(=O)Nc4c(Cl)c(OC)cc(OC)c4Cl)ncn3)cc2)CC1 [BGJ398] + CC(=O)c1c(C)c2cnc(Nc3ccc(N4CCNCC4)cn3)nc2n(C2CCCC2)c1=O [Palbociclib] (partner 0.5 µM)
How it was run: as §1

BGJ398 + Decitabine = compound: CCN1CCN(c2ccc(Nc3cc(N(C)C(=O)Nc4c(Cl)c(OC)cc(OC)c4Cl)ncn3)cc2)CC1 [BGJ398] + Nc1ncn([C@H]2C[C@H](O)[C@@H](CO)O2)c(=O)n1 [Decitabine] (partner 2 µM)
How it was run: as §1

Cell Line | relative viability ([1]; first compound 0.02 µM) | relative viability ([1]; first compound 0.06325 µM) | relative viability ([1]; first compound 0.2 µM) | relative viability ([1]; first compound 0.6325 µM) | relative viability ([1]; first compound 2 µM) | relative viability ([2]; first compound 0.02 µM) | relative viability ([2]; first compound 0.06325 µM) | relative viability ([2]; first compound 0.2 µM) | relative viability ([2]; first compound 0.6325 µM) | relative viability ([2]; first compound 2 µM) | relative viability (BGJ398 + Palbociclib; first compound 0.01 µM) | relative viability (BGJ398 + Palbociclib; first compound 0.03162 µM) | relative viability (BGJ398 + Palbociclib; first compound 0.1 µM) | relative viability (BGJ398 + Palbociclib; first compound 0.3162 µM) | relative viability (BGJ398 + Palbociclib; first compound 1 µM) | relative viability (BGJ398 + Decitabine; first compound 0.01 µM) | relative viability (BGJ398 + Decitabine; first compound 0.03162 µM) | relative viability (BGJ398 + Decitabine; first compound 0.1 µM) | relative viability (BGJ398 + Decitabine; first compound 0.3162 µM) | relative viability (BGJ398 + Decitabine; first compound 1 µM)
NCI-H3122 | 0.298 | 0.253 | 0.277 | 0.265 | 0.203 | 1.01 | 1.15 | 0.955 | 1 | 1.17 | 0.174 | 0.166 | 0.175 | 0.176 | 0.227 | 0.394 | 0.416 | 0.458 | 0.478 | 0.42
PC-3 [JPC-3] | 0.954 | 1.01 | 0.944 | 1.01 | 1.01 | 0.889 | 1.01 | 0.879 | 0.923 | 0.963 | 0.591 |  | 0.522 |  | 0.569 | 0.782 |  | 0.777 |  | 0.878
PC-14 | 0.821 | 0.954 | 0.869 | 0.972 | 0.864 | 0.88 | 0.952 | 0.994 | 1.02 | 0.993 | 0.505 | 0.524 | 0.664 |  | 0.513 | 0.179 | 0.148 | 0.252 | 0.193 | 0.135
RERF-LC-KJ | 0.547 | 0.927 | 0.864 | 0.837 | 0.753 | 0.82 | 1.03 | 0.894 | 0.811 | 0.853 | 1.13 | 0.781 | 1.17 | 1.11 | 1.23 | 0.66 | 0.79 | 0.765 | 0.739 | 0.642
SK-LU-1 | 0.913 | 1.3 | 0.985 | 0.903 | 1.07 | 1.2 | 1.22 | 1.15 | 1.06 | 0.989 | 0.394 | 0.47 | 0.384 | 0.339 | 0.346 | 0.62 | 0.572 | 0.761 | 0.527 | 0.584
SK-MES-1 | 0.965 | 1.11 | 1.02 | 0.981 | 1 | 1.04 | 1.25 | 1.09 | 0.95 | 1.04 | 0.324 | 0.328 | 0.303 | 0.331 | 0.308 | 0.377 | 0.345 | 0.41 | 0.349 | 0.321
SW 1573 | 0.729 | 0.816 | 0.825 | 0.831 | 0.742 | 0.78 | 0.825 | 0.943 | 0.847 | 0.714 | 0.399 | 0.419 | 0.402 | 0.423 | 0.404 | 0.501 | 0.557 | 0.478 | 0.498 | 0.466
